From PubChem BioAssay AID463204 (Broad Institute, 2010)
Activity calls are given as the source filed them.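 Rule for the calls: active = AC50 no more than ten times the top concentration tested, that is within one log above it; inconclusive = flat curve fit with activity between 30% and 70%, or invalid poor fit; inactive = AC50 beyond ten times the top tested dose.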

What follows are compounds tested on S. cerevisiae Mot1-301 ts growth rescue, BacTiter-Glo ATP luminescence (assay: growth rescue of Mot1-301 ts yeast, confirmation, SUMOylation pathway inhibitor project, whole organism, S. cerevisiae, Mot1-301 ts mutant, luminescence, dose retest (AID 463204);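 note: growth at restrictive 38.5 degrees C of Mot1-301 OY566 strain; actives raise luminescence by restoring growth of the ts mutant at high temperature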).
In the case of `CC(C)C(NC(=S)Nc1ccccc1)C(=O)O` (stereo unspecified), the AC50 is reported as > 42 µM (inactive).
`NC(=O)c1ccccc1NC(=O)c1ccc2c(c1)OCO2` was tested, and the AC50 was > 42 µM (inactive).
For `CC(C)C(=O)Nc1ccc(NC(=S)NC(=O)c2ccccc2F)cc1`, the AC50 was > 42 µM (inactive).
With `Cn1c(-c2ccc3c(c2)OCO3)cnc1NC(=O)CCC(=O)NCCc1ccccc1` the AC50 was > 42 µM (inactive).
For `Cc1ccccc1CSc1n[nH]c(NS(=O)(=O)c2ccccc2)n1`, the AC50 was > 21 µM (inactive).
With `CC1=NC2(CCCc3c2no[n+]3[O-])N(O)C1(C)C` (stereo unspecified) the AC50 was > 42 µM (inactive).
In the case of `CCCCOc1ccc(CSC(=N)N)cc1Cl`, the AC50 is reported as > 42 µM (inactive).
For `COC(=O)C1CN(C(=O)C(C)Oc2ccc(F)cc2)c2ccccc2O1` (stereo unspecified), the AC50 was > 42 µM (inactive).
In the case of `CCCCN(C(=O)C1=COCCO1)c1c(N)n(Cc2ccccc2)c(=O)[nH]c1=O`, the AC50 is reported as > 42 µM (inactive).
`O=C(Cn1cnc2ccccc2c1=O)c1ccc(OC(F)F)cc1` was tested, and the AC50 was > 42 µM (inactive).
In the case of `O=C(NCc1ccccc1)c1cccc(COc2ccc(Cl)cc2)c1`, the AC50 is reported as > 42 µM (inactive).
With `O=C(O)C1C2CCCCC2=C2CCCCC2C1C(=O)c1ccccc1` (stereo unspecified) the AC50 was 3.26 µM.
For `O=CNCCCc1nc2ccccc2n1CCc1ccccc1`, the AC50 was > 42 µM (inactive).
`Cc1cc(C)cc(C(=O)Oc2cc(C)[nH]c(=O)c2[N+](=O)[O-])c1` was tested, and the AC50 was > 42 µM (inactive).
For `COc1ccc(S(=O)(=O)Cc2ccc(C(=O)NCc3cccs3)o2)cc1`, the AC50 was > 42 µM (inactive).
In the case of `Cc1ccc(N2C(=O)C3N=NN(CC(=O)N4N=C(c5cccc6ccccc56)CC4c4ccccc4)C3C2=O)cc1` (stereo unspecified), the AC50 is reported as > 21 µM (inactive).
`COC(=O)C1CCN(S(=O)(=O)Cc2ccccc2)CC1` was tested, and the AC50 was > 42 µM (inactive).
With `COc1cccc(C2C(C(C)=O)=C(O)C(=O)N2CCc2c[nH]c3ccccc23)c1` (stereo unspecified) the AC50 was > 42 µM (inactive).
`CN1C(=O)c2cccc3c(Cl)ccc(c23)C1=O` was tested, and the AC50 was > 42 µM (inactive).
For `Cc1ccc(C(C(=O)Nc2ccc3c(c2)OCO3)N(C)C(=O)Cc2c[nH]c3ccccc23)cc1` (stereo unspecified), the AC50 was > 42 µM (inactive).
`COc1ccc(C(=O)NCC(=O)Nc2ccccc2)cc1OC` was tested, and the AC50 was > 42 µM (inactive).
`COc1ccc2cc3c(N)nn(C(=O)c4ccccc4Cl)c3nc2c1` was tested, and the AC50 was > 42 µM (inactive).
`Cc1nc(CC(=O)N/N=C/c2ccc(OCC(=O)O)cc2)cs1` was tested, and the AC50 was > 42 µM (inactive).
With `O=C(c1ccc(OC2CCN(CCc3ccccc3)CC2)cc1)N1CCCC1` the AC50 was > 42 µM (inactive).
With `CCCC(=O)N(CCN1CCOCC1)c1nc2ccc(OCC)cc2s1` the AC50 was > 42 µM (inactive).
For `COc1ccc(C)cc1NC(=O)C12CCC(C)(C(=O)O1)C2(C)C` (stereo unspecified), the AC50 was > 42 µM (inactive).
In the case of `COCCn1c(=O)[nH]c(=O)c2cc(C(=O)c3cc(Cl)ccc3O)cnc21`, the AC50 is reported as > 42 µM (inactive).
`N=c1c[n+](C2CCCCC2)[n-]o1` was tested, and the AC50 was > 42 µM (inactive).
In the case of `CCS(=O)(=O)N1CCC(C(=O)NCCCN2CCN(c3ccccc3F)CC2)CC1`, the AC50 is reported as > 42 µM (inactive).
For `Nc1nnc(CC(=O)N2CCCCC2)s1`, the AC50 was > 42 µM (inactive).
In the case of `COc1cccc(-c2ocnc2C(=O)Nc2ccc3c(c2)CCC3)c1`, the AC50 is reported as > 42 µM (inactive).
`CCc1nnc(NC(=O)CSc2nc3c(cc2C#N)CCCC3)s1` was tested, and the AC50 was > 42 µM (inactive).
For `O=C(O)c1ccc(Cl)c(NCc2cccs2)c1`, the AC50 was > 42 µM (inactive).
With `O=C(CN1C(=O)NC2(CCCC2)C1=O)Nc1nc2ccccc2[nH]1` the AC50 was > 42 µM (inactive).
For `COC(=O)CSc1ccc(S(=O)(=O)N2CCCCCC2)cc1[N+](=O)[O-]`, the AC50 was > 42 µM (inactive).
With `Cc1noc(C)c1S(=O)(=O)N1CCCC(C(=O)NCC2CCCO2)C1` (stereo unspecified) the AC50 was > 42 µM (inactive).
With `COc1ccc(OCC(=O)Nc2ccc(C)cc2)cc1` the AC50 was > 42 µM (inactive).
`O=C1CC(c2c[nH]c3ccccc23)C(=O)N1c1ccccc1` (stereo unspecified) was tested, and the AC50 was > 42 µM (inactive).
In the case of `Brc1ccc(-c2cn3cccnc3n2)cc1`, the AC50 is reported as > 42 µM (inactive).
With `c1ccc(-c2nc(NCc3ccco3)c3ccccc3n2)nc1` the AC50 was > 42 µM (inactive).
In the case of `Cc1cnc(NC(=O)CN2CCN(c3ccccc3F)CC2)s1`, the AC50 is reported as > 42 µM (inactive).
In the case of `CCOC(=O)c1ccc(CNC(=O)C2CCCCC2C(=O)OCC(F)(F)F)o1` (stereo unspecified), the AC50 is reported as > 42 µM (inactive).
With `CNC(=O)NNC(=O)c1csc(-c2ccc(C(F)(F)F)cc2Cl)n1` the AC50 was > 42 µM (inactive).
In the case of `Cc1cccc(Cn2c(C(=O)OC(C)C)cc3c2ccn3C)c1`, the AC50 is reported as > 42 µM (inactive).
Compound `CCCCc1ccc(NC(=S)NCc2cccs2)cc1` has an AC50 of 41.9 µM.
For `CC(C)C(=O)Nc1ccc(-c2nc3cccnc3o2)cc1`, the AC50 was > 42 µM (inactive).
For `CCC12CN3CCN(CC(C3)/C1=N/NC(=O)c1ccncc1)C2`, the AC50 was > 42 µM (inactive).
In the case of `COc1ccccc1OCCCn1cc(C#N)c2ccccc21`, the AC50 is reported as > 42 µM (inactive).
With `N=c1sccn1CC(=O)Nc1cccc(S(N)(=O)=O)c1` the AC50 was > 42 µM (inactive).
For `Cn1c(SCC(=O)Nc2ccc(N3CCOCC3)c(Cl)c2)nnc1-c1ccccc1`, the AC50 was > 42 µM (inactive).
For `COc1ccc(Cl)cc1N(C(=O)c1ccco1)C(C(=O)NC1CCCC1)c1ccncc1` (stereo unspecified), the AC50 was > 42 µM (inactive).
